# Source: patent US20230338349A1, “LOW DOSE REGIMEN AND FORMULATION OF A 5-METHYL-1,2,4-OXADIAZOL-3-YL COMPOUND” (Eli Lilly and Company, priority 2020, published 2023)
# Assay: Plasma concentration of compound of Formula I in the PET occupancy study
# Format: in vivo
# Settings: human, healthy subjects; for concentration at 0.5 h: approx. 0.5 h; for concentration at 1 h: approx. 1 h; for concentration at 2 h: approx. 2 h; for concentration at 3 h: approx. 3 h; for concentration at 4 h: approx. 4 h; for concentration at 5 h: approx. 5 h; for concentration at 6 h: approx. 6 h; for concentration at 8 h: approx. 8 h; for concentration at 12 h: approx. 12 h; for concentration at 24 h: approx. 24 h
# Protocol: Healthy subjects are assigned to 1 of 4 cohorts with 4 subjects in each cohort completing the study. All subjects undergo one baseline PET scan and two post-dose PET scans. A baseline PET scan is performed from up to approximately 14 days before dosing of the compound of Formula I. Overall, each subject receives a single dose of the compound of Formula I and 3 administrations of the [^18F]LSN3316612 PET tracer. Dosing of the compound of Formula I occurs after completion of the baseline PET scan. Scans are conducted at approximately 2 and 24 hours post-dose for the 0.25 mg and 5 mg doses of the compound of Formula I, and at approximately 2 and 24 hours or 30 and 54 hours post-dose for the 1 mg dose of the compound of Formula I. Dynamic PET data of the brain are acquired over 120 min immediately following tracer injection. EO is summarized by the compound of Formula I dose and approximate scanning time.
# The compound of Formula I is administered orally in capsule formulation for doses≥3 mg. For doses lower than 3 mg, the compound of Formula I is weighed into a suitable container and dissolved in an appropriate volume of degassed Sprite® or diluent.
# Arterial blood samples are collected from all subjects during each PET scan to measure radioactivity to provide input for the PET tracer kinetic analysis. Venous blood samples are collected following dosing of compound of Formula I to measure plasma concentrations of compound of Formula I using a validated liquid chromatography with tandem mass spectrometry assay.
smiles,measurement,setting,value
"CC(=O)Nc1nc(F)c(CN2CC[C@H](OCc3noc(C)n3)C[C@@H]2C)s1 [compound of Formula I, N-[4-fluoro-5-[[(2S,4S)-2-methyl-4-[(5-methyl-1,2,4-oxadiazol-3-yl)methoxy]-1-piperidyl]methyl]thiazol-2-yl]acetamide]",concentration at 0.5 h,single oral dose 0.25 mg,0.934 ng/mL
same,concentration at 1 h,single oral dose 0.25 mg,0.595 ng/mL
same,concentration at 2 h,single oral dose 0.25 mg,0.373 ng/mL
same,concentration at 3 h,single oral dose 0.25 mg,0.391 ng/mL
same,concentration at 4 h,single oral dose 0.25 mg,0.367 ng/mL
same,concentration at 5 h,single oral dose 0.25 mg,0.39 ng/mL
same,concentration at 6 h,single oral dose 0.25 mg,0.357 ng/mL
same,concentration at 8 h,single oral dose 0.25 mg,0.294 ng/mL
same,concentration at 12 h,single oral dose 0.25 mg,0.213 ng/mL
same,concentration at 24 h,single oral dose 0.25 mg,0.107 ng/mL
same,concentration at 0.5 h,single oral dose 1 mg,6.29 ng/mL
same,concentration at 1 h,single oral dose 1 mg,6.24 ng/mL
same,concentration at 2 h,single oral dose 1 mg,5.75 ng/mL
same,concentration at 3 h,single oral dose 1 mg,4.97 ng/mL
same,concentration at 4 h,single oral dose 1 mg,4.28 ng/mL
same,concentration at 5 h,single oral dose 1 mg,3.87 ng/mL
same,concentration at 6 h,single oral dose 1 mg,3.08 ng/mL
same,concentration at 8 h,single oral dose 1 mg,2.45 ng/mL
same,concentration at 12 h,single oral dose 1 mg,1.42 ng/mL
same,concentration at 24 h,single oral dose 1 mg,0.412 ng/mL
same,concentration at 30 h,"single oral dose 1 mg, approx. 30 h",0.222 ng/mL
same,concentration at 54 h,"single oral dose 1 mg, approx. 54 h",0.0735 ng/mL
same,concentration at 0.5 h,single oral dose 5 mg,32.4 ng/mL
same,concentration at 1 h,single oral dose 5 mg,30.7 ng/mL
same,concentration at 2 h,single oral dose 5 mg,36 ng/mL
same,concentration at 3 h,single oral dose 5 mg,31.9 ng/mL
same,concentration at 4 h,single oral dose 5 mg,31.5 ng/mL
same,concentration at 5 h,single oral dose 5 mg,30.6 ng/mL
same,concentration at 6 h,single oral dose 5 mg,25.3 ng/mL
same,concentration at 8 h,single oral dose 5 mg,17.8 ng/mL
same,concentration at 12 h,single oral dose 5 mg,12.5 ng/mL
same,concentration at 24 h,single oral dose 5 mg,3.07 ng/mL
